According to ChEMBL document CHEMBL1134339, “New 1-aryl-3-(4-arylpiperazin-1-yl)propane derivatives, with dual action at 5-HT1A serotonin receptors and serotonin transporter, as a new class of antidepressants” (J Med Chem, 2001):

Key:
[1] = target: T1, 5-hydroxytryptamine receptor 1A (Rattus norvegicus, UniProt P19327); experiment: Binding affinity to 5-hydroxytryptamine 1A receptor (5-HT 1A receptor, serotonin receptor) from rat cortex using [3H]8-OH-DPAT as radioligand
T1 sequence (P19327 whole entry): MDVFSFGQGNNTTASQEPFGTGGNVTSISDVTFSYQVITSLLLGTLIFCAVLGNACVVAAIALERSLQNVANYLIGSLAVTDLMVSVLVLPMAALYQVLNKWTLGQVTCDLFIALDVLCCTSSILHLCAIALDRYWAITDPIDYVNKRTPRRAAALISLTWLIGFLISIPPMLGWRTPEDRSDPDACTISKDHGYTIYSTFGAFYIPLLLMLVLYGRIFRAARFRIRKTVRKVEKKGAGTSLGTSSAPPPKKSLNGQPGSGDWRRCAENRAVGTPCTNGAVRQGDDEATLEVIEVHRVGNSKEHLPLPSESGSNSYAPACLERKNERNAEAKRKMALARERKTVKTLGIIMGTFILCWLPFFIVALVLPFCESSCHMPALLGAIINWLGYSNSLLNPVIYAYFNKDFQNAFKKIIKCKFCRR

Mus musculus [2] = experiment: Time-dependent effect on 8-OH-DPAT-induced hypothermia (change in body temperature) after 30 min, in mice at 5 mg/kg dose; type: functional
Rattus norvegicus = experiment: Effect on helpless behavior in rats and the number of escape failures was determined in shuttle-box session-3 (SB-3) at 1 mg/kg dose; type: functional
[3] = target: T2, 5-hydroxytryptamine receptor 1A (Homo sapiens) (UniProt P08908); settings: HeLa
T2 sequence (whole entry): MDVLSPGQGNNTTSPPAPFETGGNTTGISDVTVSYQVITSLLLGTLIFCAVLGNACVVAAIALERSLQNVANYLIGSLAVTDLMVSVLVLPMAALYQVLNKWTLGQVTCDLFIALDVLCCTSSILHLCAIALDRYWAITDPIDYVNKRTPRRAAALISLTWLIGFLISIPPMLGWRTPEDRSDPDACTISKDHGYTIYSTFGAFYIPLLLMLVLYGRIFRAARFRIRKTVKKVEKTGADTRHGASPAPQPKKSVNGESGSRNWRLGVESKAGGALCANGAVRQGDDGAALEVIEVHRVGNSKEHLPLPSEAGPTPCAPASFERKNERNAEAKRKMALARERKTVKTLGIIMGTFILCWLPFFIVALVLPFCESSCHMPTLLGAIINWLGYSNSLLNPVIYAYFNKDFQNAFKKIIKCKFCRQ

[4] = target: 5-hydroxytryptamine receptor 2A (Rattus norvegicus, UniProt P14842); experiment: Affinity at 5-hydroxytryptamine 2 receptor from rat frontal cortex using [3H]ketanserin as radioligand (For ketanserin = Ki(nM)=0.7+/-0.09); type: tissue-based
[5] = target: T3, 5-hydroxytryptamine receptor 3A (Rattus norvegicus, UniProt P35563); experiment: Affinity at 5-hydroxytryptamine 3 receptor from rat frontal cortex using [3H]granisetron as radioligand (For granisetron = Ki(nM)=0.3+/-0.01); type: tissue-based
T3 sequence (P35563 whole entry): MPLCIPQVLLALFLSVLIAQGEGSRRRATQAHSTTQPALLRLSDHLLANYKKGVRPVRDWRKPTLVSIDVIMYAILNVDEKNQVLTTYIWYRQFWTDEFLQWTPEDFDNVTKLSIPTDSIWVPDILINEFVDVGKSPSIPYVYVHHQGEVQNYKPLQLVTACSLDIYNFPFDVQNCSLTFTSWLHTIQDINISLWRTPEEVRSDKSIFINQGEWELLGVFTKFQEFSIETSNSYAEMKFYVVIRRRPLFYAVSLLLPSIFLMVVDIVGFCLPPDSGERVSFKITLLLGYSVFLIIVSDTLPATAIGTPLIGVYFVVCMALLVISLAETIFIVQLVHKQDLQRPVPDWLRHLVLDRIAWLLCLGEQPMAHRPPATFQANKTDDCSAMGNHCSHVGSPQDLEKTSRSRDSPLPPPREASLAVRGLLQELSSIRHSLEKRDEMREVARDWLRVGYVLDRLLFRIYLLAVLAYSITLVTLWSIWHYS

D(2) dopamine receptor = D(2) dopamine receptor (Rattus norvegicus, UniProt P61169); experiment: Affinity at dopamine D2 receptor from rat striatum using [3H]spiroperidol as radioligand (For haloperidol Ki(nM)= 1.5+/-1.2); type: tissue-based
Mus musculus [6] = experiment: Antidepressant-like activity in the forced swimming test (FST) in mice at 0.1 mg/kg dose; Antidepressant like activity; type: functional
Adrenergic receptor beta = Adrenergic receptor beta (Rattus norvegicus, UniProt P18090+P10608+P26255)

D(2) dopamine receptor, sequence (P61169 whole entry): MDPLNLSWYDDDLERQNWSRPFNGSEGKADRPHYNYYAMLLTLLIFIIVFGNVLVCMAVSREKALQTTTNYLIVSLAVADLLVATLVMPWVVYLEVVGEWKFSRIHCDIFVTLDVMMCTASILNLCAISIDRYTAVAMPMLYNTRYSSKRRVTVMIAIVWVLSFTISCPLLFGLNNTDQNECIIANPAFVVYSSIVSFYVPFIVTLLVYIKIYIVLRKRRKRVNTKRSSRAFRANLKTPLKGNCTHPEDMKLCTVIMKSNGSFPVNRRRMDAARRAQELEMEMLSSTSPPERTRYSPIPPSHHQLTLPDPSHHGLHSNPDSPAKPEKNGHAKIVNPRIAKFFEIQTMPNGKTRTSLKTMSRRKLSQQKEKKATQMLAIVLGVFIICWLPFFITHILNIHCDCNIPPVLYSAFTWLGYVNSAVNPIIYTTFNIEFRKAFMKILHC
5-hydroxytryptamine receptor 2A, sequence (P14842 whole entry): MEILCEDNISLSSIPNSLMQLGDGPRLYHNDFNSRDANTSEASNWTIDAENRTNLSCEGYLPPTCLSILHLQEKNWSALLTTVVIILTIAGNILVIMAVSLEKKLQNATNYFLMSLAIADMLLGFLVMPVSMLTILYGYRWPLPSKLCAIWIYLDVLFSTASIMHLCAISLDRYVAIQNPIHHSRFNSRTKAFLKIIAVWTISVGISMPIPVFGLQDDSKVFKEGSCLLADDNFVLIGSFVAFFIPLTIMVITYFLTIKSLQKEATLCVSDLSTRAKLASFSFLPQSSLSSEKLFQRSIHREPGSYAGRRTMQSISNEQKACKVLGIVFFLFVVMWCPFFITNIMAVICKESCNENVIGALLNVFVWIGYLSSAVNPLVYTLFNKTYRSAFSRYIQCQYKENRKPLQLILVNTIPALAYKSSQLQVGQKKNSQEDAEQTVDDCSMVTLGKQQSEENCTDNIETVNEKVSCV

Row | Ki [1] | cAMP [3] | SMILES | Temperature change (Mus musculus [2]) | No. of escape failures (Rattus norvegicus) | Ki ([1]; read-out: Ki) | Ki [4] | Ki [5] | Ki (D(2) dopamine receptor) | Activity (Mus musculus [6]) | Ki (Adrenergic receptor beta)
1 | 0.044 µM | 27 pmol/well | COc1ccccc1N1CCN(CCC(=O)c2csc3ccccc23)CC1 | <-1.47 °C | <2.8 |  |  |  |  |  | 
2 |  | 28.5 pmol/well | COc1ccccc1N1CCN(CCC(Oc2cccc3ccccc23)c2ccsc2)CC1 (stereo not given) |  | 0.5 | 0.18 µM | > 5 µM | > 5 µM | 2.5 µM | 0% | > 5 µM

Row | SMILES | Ki [1] | cAMP [3] | Temperature change (Mus musculus [2]) | No. of escape failures (Rattus norvegicus) | Ki ([1]; read-out: Ki) | Ki [4] | Ki [5] | Ki (D(2) dopamine receptor) | Activity (Mus musculus [6]) | Ki (Adrenergic receptor beta)
3 | COc1ccccc1N1CCN(CCC(O)c2csc3ccccc23)CC1 (stereo not given) |  | 19.1 pmol/well | -2.5 °C |  | 0.02 µM | 0.25 µM | > 5 µM | 0.15 µM | 35% | 0.75 µM
